Data on four molecules can be found in US20260354383A1, “AN HERBICIDAL COMBINATION, COMPOSITION AND METHOD OF CONTROLLING WEEDS USING THE SAME” (UPL Mauritius Limited, priority 2022, published 2026).

For experiment [1] the following is noted: cited from earlier work.
The subject of experiment [2] is Viola arvensis, Bromus spp., Lolium spp., Agropyron repens and Urtica urens. The note with it: Hoechst et al., 1991; cited from earlier work.
The subject of another experiment is weedy Glycine max. As to the kind of experiment: Post-emergence herbicidal activity (greenhouse), weedy Glycine max, Example 4. The note with it: L-glufosinate ammonium 150. The class given is in vivo. As for the experimental part:
(§1) The expected efficacy of a combination of L-glufosinate ammonium and the other herbicides was calculated using the well-established Colby method. Any difference between the observed and “expected” efficacy could be attributed to synergy between the two compounds.
(§2) In the Colby method, the expected (or predicted) response of a combination of herbicides is calculated by taking the product of the observed response for each individual component of the combination when applied alone, divided by 100, and subtracting this value from the sum of the observed response for each component when applied alone. An unexpected enhancement in efficacy of the combination is then determined by comparing the observed response of the combination to the expected (or predicted) response as calculated from the observed response of each individual component alone. If the observed response of the combination is greater than the expected (or predicted) response, or stated conversely, if the difference between the observed and expected response is greater than zero, then the combination is said to be synergistic or unexpectedly effective (Colby, S. R., Weeds, 1967(15), p. 20-22). The Colby method requires only a single dose of each herbicide applied alone and the mixture of both doses. The formula used to calculate the expected efficacy (EE) which was compared with the observed efficacy (OE) to determine the efficacy of the present disclosure is explained hereinbelow:
(§3) The expected efficacy for a combination of two active ingredients is as follows:
(§4) Evaluation of Post-Emergence Herbicidal Activity
(§5) Methodology: Greenhouse trials were conducted to evaluate the efficacy of the combination comprising L-glufosinate ammonium and clethodim on weeds Eleusine indica, Brachiaria decumbens, Spermacoce latifolia and weedy Glycine max.
(§6) The soil used was sandy clay loam—sand: 68.0%; silt: 8.0%; clay: 24.0%.
(§7) All treatments were in 3 replications per treatment with a spray volume of about 150 L/ha.
Example 4: Efficacy of L-Glufosinate Ammonium and Clethodim on Weedy Glycine max
The percentage efficacy was calculated after 3, 7, 14, 21, 28 and 35 days of application (DAA). The target weed was weedy Glycine max, and the concentration of the herbicide and the results are recorded in the Table 4.

For the next experiment, the system named is Spermacoce latifolia. As to the kind of experiment: Post-emergence herbicidal activity (greenhouse), Spermacoce latifolia, Example 3. The experiment is classed as in vivo. The note with it: 7 DAA. As for the experimental part:
as §1
as §2, with “The Colby method requires only a single dose of each herbicide applied alone and the mixture of both doses. The formula used to calculate the expected efficacy (EE) which was compared with the observed efficacy (OE) to determine the efficacy of the present disclosure is explained hereinbelow:” left out
The percentage efficacy was calculated after 7 days of application (DAA). The target weed was Spermacoce latifolia, and the concentration of the herbicide and the results are recorded in the Table 3.

A further experiment concerns Brachiaria decumbens. In words: Post-emergence herbicidal activity (greenhouse), Brachiaria decumbens, Example 2. The experiment is classed as in vivo. The note with it: L-glufosinate ammonium 150, clethodim 45 g a.i./ha. As for the experimental part: as §1, §2, §3, §4, §5, §6, §7
Example 2: Efficacy of L-Glufosinate Ammonium and Clethodim on Brachiaria decumbens
The percentage efficacy was calculated after 7, 14, 21, 28 and 35 days of application (DAA). The target weed was Brachiaria decumbens, and the concentration of the herbicides and the results are recorded in the Table 2.

The test system of another experiment is Eleusine indica. In words: Post-emergence herbicidal activity (greenhouse), Eleusine indica, Example 1. The experiment is classed as in vivo. The note with it: L-glufosinate ammonium 150. As for the experimental part: as §1, §2, §3, §4, §5, §6, §7
Example 1: Efficacy of L-Glufosinate Ammonium and Clethodim on Eleusine indica
The percentage efficacy was calculated after 3, 7, 28 and 35 days of application (DAA). The target weed was Eleusine indica, and the concentration of the herbicide and the results are recorded in the Table 1.

Take `CP(=O)(O)CC[C@H](N)C(=O)O` [L-Glufosinate, (S)-2-amino-4-(hydroxy(methyl)phosphonoyl)butanoic acid]: the “herbicidal activity relative to glyphosate” value in experiment [1] (vs glyphosate) was “about four times that of glyphosate”. Also, in experiment [1] (vs paraquat), the “herbicidal activity relative to paraquat” value was “about twice that of paraquat”. The “herbicidal activity relative to racemic glufosinate (DL-glufosinate)” value in experiment [1] (vs racemic glufosinate) is reported as “more than about twice that of racemic glufosinate”.

On to `CP(=O)(O)CCC(N)C(=O)O` (racemic) [Glufosinate, DL-homoalanin-4-yl(methyl)phosphinic acid], for which the “weed species either not combated, or only weakly combated” value in experiment [2] is recorded as “either not combated, or only weakly combated”.

`CP(=O)(O)CC[C@H](N)C(=O)O.N` [L-glufosinate ammonium, ammonium (2S)-2-amino-4-(methylphosphinato)butyric acid]: the “% Control” value in the experiment on weedy Glycine max (3 DAA) came out at 15%; in the experiment on weedy Glycine max (7 DAA), 53.3%; in the experiment with weedy Glycine max (14 DAA), 71%; in the experiment on weedy Glycine max (21 DAA) it was 66.7%; in the experiment on weedy Glycine max (28 DAA), 56.7%; in the experiment on weedy Glycine max (35 DAA) it was 41.7%. Besides, the “% Control” value was 31.7% in the experiment on Spermacoce latifolia; 50% with Brachiaria decumbens (7 DAA); 79.3% in the experiment with Brachiaria decumbens (14 DAA); 82% in the experiment on Brachiaria decumbens (21 DAA); 79.3% in the experiment with Brachiaria decumbens (28 DAA); 79.3% in the experiment on Brachiaria decumbens (35 DAA). The “% Control” value turned out to be 12.3% in the experiment on Eleusine indica (3 DAA), 50.7% in the experiment on Eleusine indica (7 DAA), 59.3% in the experiment with Eleusine indica (28 DAA) and 54.3% with Eleusine indica (35 DAA).

Take `CCSC(C)CC1CC(=O)C(/C(CC)=N/OC/C=C/Cl)=C(O)C1` (stereo not drawn) [Clethodim, clethodim]: the “% Control” value in the experiment on weedy Glycine max (3 DAA), in the experiment on weedy Glycine max (7 DAA), with weedy Glycine max (14 DAA), in the experiment on weedy Glycine max (21 DAA), in the experiment with weedy Glycine max (28 DAA) and with weedy Glycine max (35 DAA) was 0% throughout. The “% Control” value is reported as 3% in the experiment with Spermacoce latifolia; 15% in the experiment on Brachiaria decumbens (7 DAA); 55% in the experiment on Brachiaria decumbens (14 DAA); 65% with Brachiaria decumbens (21 DAA); 75% with Brachiaria decumbens (28 DAA); 71% with Brachiaria decumbens (35 DAA). Also, the “% Control” value worked out at 6.7% with Eleusine indica (3 DAA), 15% in the experiment with Eleusine indica (7 DAA), 81.7% in the experiment on Eleusine indica (28 DAA) and 84.3% in the experiment on Eleusine indica (35 DAA).
